# Patent US5721247A, “Isothiourea derivatives useful in therapy” (priority 1994, dated 1998)
# What was measured:
# [1] = molecular target: T1, neuronal nitric oxide synthase (Rattus norvegicus, UniProt P29476); experiment: Screen for neuronal nitric oxide synthase inhibiting activity (Screen A); assay type: biochemical
# T1 construct: Enzyme was isolated from rat hippocampus or cerebellum; from tissue; host or cells: cerebellum or hippocampus of male Sprague-Dawley rat (20,000 g supernatant)
# Protocol: (A) Screen for neuronal nitric oxide synthase inhibiting activity
# Enzyme was isolated from rat hippocampus or cerebellum. The cerebellum or hippocampus of a male Sprague-Dawley rat (250-275 g) is removed following CO2 anaesthesia of the animal and decapitation. Cerebellar or hippocampal supernatant is prepared by homogenisation in 50 mM Tris-HCl with 1 mM EDTA buffer (pH 7.2 at 25° C.) and centifugation for 15 minutes at 20,000 g. Residual L-arginine is removed from the supernatant by chromatography through Dowex AG-50W-X8 sodium form and hydrogen form columns successively, and further centrifugation at 1000 g for 30 seconds.
# For the assay, 25 μl of the final supernatant is added to each of 12 test tubes containing 25 μl L-arginine solution (of concentration 18 μM ^1 H-L-arginine, 96 nM ^3 H-L-arginine) and either 25 μl of an assay buffer (50 mM HEPES, 1 mM EDTA, 1.5 mM CaCl2, pH 7.4) or 25 μl of test compound in the buffer at 22° C. […]
# (§1) Labelled L-citrulline is separated from labelled L-arginine by chromatography over a Dowex AG-50W-X8 200-400 mesh column. […] The L-citrulline is then quantified by scintillation counting. […]
# [2] = molecular target: T2, endothelial nitric oxide synthase (Homo sapiens, UniProt P29474); experiment: Screen for endothelial nitric oxide synthase inhibiting activity (Screen C); assay type: biochemical
# T2 construct: Enzyme may be isolated from human umbilical vein endothelial cells (HUVECs); host or cells: HUVEC (CHAPS-solubilised particulate fraction)
# Protocol: (C) Screen for endothelial nitric oxide synthase inhibiting activity
# HUVECs were purchased from Clonetics Corp (San Diego, Calif., USA) and cultured to confluency. Cells can be maintained to passage 35-40 without significant loss of yield of nitric oxide synthase. When cells reach confluency, they are resuspended in Dulbecco's phosphate buffered saline, centrifuged at 800 rpm for 10 mins, the cell pellet homogenised in ice-cold 50 mM Tris-HCl, 1 mM EDTA, 10% glycerol, 1 mM phenylmethylsulphonylfluoride, 2 μM leupeptin at pH 4.2. Following centrifugation at 34,000 rpm for 60 mins, the pellet is solubilised in the homogenisation buffer which also contains 20 mM CHAPS. After a 30 min incubation on ice, the suspension is centrifuged at 34,000 rpm for 30 mins. The resulting supernatant is stored at -80° C. until use.
# For the assay, 25 μl of the final supernatant is added to each of 12 test tubes containing 25 μl L-arginine solution (of concentration 12 μM ^1 H-L-arginine, 64 nM ^3 H-L-arginine) and either 25 μl of an assay buffer (50 mM HEPES, 1 mM EDTA, 1.5 mM CaCl2, pH 7.4) or 25 μl of test compound in the buffer at 22° C. […]
# as §1
# [3] = molecular target: T3, macrophage nitric oxide synthase (Mus musculus, UniProt P29477); experiment: Screen for macrophage nitric oxide synthase inhibiting activity (Screen B); assay type: biochemical, murine; conditions: ratio of IC50 in Screen B (macrophage isoform) to IC50 in Screen A (neuronal isoform)
# T3 construct: Nitric oxide synthase is produced by cells in response to interferon-γ (IFNγ) and lipopolysaccharide (LPS); endogenous in cells; host or cells: J774A-1 murine macrophage cell line, induced with LPS and IFN-gamma (cell lysate)
# Excerpt: The enzyme nitric oxide synthase has a number of isoforms and compounds of formula I, and pharmaceutically acceptable salts thereof, may be screened for nitric oxide synthase inhibiting activity by procedures based on those of Bredt and Snyder in Proc. Natl. Acad. Sci. (1990) 87, 682-685 and Forstermann et. al., Eur. J. Pharm. (1992) 225, 161-165 as follows. Nitric oxide synthase converts ^3 H-L-arginine to ^3 H-L-citrulline which can be separated by cation exchange chromatography and quantified by scintillation counting.
# (B) Screen for macrophage nitric oxide synthase inhibiting activity
# Enzyme is prepared, after induction, from the cultured murine macrophage cell line J774A-1 (obtained from laboratories of the Imperial Cancer Research Fund). J774A-1 cells are cultured in Dulbecco's Modified Eagles Medium (DMEM) supplemented with 10% foetal bovine serum, 4 mM L-glutamine and antibiotics (100 units/ml penicillin G, 100 μg/ml streptomycin & 0.25 μg/ml amphotericin B). Cells are routinely grown in […] flasks containing 35 ml medium kept at 37° C. and in a humidified atmosphere containing 5% CO2.
# Nitric oxide synthase is produced by cells in response to interferon-γ (IFNγ) and lipopolysaccharide (LPS). […]
# Labelled L-citrulline is separated from labelled L-arginine using Dowex AG-50W. […] After allowing the samples to dry the L-citrulline is quantified by scintillation counting. […]
# T1 sequence (P29476 whole entry): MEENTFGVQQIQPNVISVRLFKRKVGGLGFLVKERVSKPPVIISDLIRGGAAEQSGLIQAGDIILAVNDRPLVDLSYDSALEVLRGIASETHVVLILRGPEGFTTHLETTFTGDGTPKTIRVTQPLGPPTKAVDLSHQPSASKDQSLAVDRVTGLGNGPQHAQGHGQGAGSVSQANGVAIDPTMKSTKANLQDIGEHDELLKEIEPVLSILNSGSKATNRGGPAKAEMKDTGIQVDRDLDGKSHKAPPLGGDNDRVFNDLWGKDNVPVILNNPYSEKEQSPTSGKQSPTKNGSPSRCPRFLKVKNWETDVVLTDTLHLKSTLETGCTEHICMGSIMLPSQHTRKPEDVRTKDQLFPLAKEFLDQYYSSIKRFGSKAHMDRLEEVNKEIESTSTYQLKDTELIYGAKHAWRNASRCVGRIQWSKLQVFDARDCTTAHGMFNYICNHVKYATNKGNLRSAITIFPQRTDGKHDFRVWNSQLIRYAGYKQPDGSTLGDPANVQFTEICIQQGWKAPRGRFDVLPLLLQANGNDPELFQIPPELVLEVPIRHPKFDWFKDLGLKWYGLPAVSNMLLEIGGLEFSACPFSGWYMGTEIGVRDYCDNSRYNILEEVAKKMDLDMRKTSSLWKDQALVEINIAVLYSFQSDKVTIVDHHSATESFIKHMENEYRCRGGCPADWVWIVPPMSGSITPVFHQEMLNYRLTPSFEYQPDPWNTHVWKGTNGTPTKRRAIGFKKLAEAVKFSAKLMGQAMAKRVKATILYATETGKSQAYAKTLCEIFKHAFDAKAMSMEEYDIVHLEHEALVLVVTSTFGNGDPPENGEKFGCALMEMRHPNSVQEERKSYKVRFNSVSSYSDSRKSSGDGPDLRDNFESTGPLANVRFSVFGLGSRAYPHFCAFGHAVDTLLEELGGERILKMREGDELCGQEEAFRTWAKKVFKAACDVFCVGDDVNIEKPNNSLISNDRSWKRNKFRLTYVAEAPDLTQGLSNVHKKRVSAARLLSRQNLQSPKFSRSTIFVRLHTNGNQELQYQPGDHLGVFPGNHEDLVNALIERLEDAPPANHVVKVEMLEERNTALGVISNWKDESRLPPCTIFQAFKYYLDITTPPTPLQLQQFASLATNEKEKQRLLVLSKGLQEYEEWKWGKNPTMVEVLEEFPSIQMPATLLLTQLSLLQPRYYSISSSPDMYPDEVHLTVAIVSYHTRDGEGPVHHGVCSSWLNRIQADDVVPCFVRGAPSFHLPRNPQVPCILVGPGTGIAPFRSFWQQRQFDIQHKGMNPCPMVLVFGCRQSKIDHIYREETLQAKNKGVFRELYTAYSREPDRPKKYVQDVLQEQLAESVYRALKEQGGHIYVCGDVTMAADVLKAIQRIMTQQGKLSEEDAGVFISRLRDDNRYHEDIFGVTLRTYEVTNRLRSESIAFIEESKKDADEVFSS
# T2 sequence (P29474 2-1203): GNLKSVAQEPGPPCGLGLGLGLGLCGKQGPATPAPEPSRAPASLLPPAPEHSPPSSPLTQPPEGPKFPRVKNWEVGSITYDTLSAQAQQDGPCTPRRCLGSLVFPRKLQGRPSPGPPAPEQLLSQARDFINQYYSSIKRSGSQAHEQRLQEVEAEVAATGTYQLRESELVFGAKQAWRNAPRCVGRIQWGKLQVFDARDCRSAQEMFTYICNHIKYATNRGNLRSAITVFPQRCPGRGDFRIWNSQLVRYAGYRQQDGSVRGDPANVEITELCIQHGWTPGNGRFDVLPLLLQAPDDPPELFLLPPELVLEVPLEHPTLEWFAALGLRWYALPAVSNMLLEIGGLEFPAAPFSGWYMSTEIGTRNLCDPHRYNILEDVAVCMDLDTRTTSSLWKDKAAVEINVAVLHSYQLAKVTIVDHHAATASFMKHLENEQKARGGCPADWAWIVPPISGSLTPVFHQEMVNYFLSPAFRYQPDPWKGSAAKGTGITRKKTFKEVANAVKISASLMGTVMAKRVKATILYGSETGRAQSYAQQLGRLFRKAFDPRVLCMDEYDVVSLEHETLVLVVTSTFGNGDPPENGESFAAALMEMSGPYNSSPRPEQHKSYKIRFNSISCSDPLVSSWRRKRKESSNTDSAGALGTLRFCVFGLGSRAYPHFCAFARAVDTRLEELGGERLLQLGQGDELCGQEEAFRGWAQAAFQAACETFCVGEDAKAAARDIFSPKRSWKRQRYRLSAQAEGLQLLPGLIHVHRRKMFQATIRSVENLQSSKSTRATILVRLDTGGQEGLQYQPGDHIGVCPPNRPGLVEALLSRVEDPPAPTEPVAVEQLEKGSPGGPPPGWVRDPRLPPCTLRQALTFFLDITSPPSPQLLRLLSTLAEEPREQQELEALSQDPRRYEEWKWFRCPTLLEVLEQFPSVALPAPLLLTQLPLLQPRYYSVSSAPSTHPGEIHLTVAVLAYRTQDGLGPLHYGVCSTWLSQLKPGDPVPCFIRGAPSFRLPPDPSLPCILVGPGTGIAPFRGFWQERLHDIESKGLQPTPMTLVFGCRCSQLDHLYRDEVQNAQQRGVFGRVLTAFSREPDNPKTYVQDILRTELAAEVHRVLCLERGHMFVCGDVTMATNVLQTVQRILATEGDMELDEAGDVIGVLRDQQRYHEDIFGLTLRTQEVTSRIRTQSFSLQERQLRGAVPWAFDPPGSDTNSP
structure (smiles),measurement,setting,value
"N=C(NCCC[C@H](N)C(=O)O)N[N+](=O)[O-] [N-nitro-L-arginine, reference compound]",inhibition at 1 µM,[1]; reference standard at a concentration of 1 μM,60%
same,inhibition at 1 µM,"[2]; reference standard at a concentration of 1 μM, HUVEC enzyme",70 to 90%
"CCSC(=N)Nc1ccc(CCN(C)Cc2ccccc2)cc1 [Example 1, N-(4-(2-((Phenylmethyl)(methyl)amino)ethyl)phenyl)carbamimidothioic acid ethyl ester]",IC50,"[1]; Screen A, neuronal isoform, rat hippocampus or cerebellum supernatant",< 10 µM
same,IC50 values more than 10 times that obtained in Screen A,[3],more than 10 times
same,IC50 values more than 10 times that obtained in Screen A,[2]; ratio of IC50 in Screen C (endothelial isoform) to IC50 in Screen A (neuronal isoform),more than 10 times
